Laboratory results published in patent US10604514B2, “6-(5-membered heteroaryl)isoquinolin-3-yl carboxamides and preparation and use thereof” (Samumed, LLC, priority 2017, dated 2020).
Where two headings read alike, the source gives them in different places.

What was measured:
[1] = tested on: Wnt activity (Sp5-Luc reporter in SW480 colon carcinoma cells); test: Wnt activity screening assay (Sp5-Luc reporter gene assay); type: cell-based, human
Summary of the method: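 SW480 cells stably carrying an Sp5 promoter (eight TCF/LEF sites)-firefly luciferase reporter were plated in DMEM with 1% FBS and treated with a 10-point, 1:3 dilution series from 10 μM (0.1% DMSO) for 36 to 48 h at 37° C. Luminescence was normalized to DMSO controls, and EC50 came from four-parameter nonlinear regression.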

[2] = tested on: Tau phosphorylation at Ser396 (pSer396), SH-SY5Y cells; test: Tau phosphorylation at Ser396 (pSer396) in SH-SY5Y cells, ELISA/western blot; type: cell-based, human; conditions: Homo sapiens;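 also: cell lysates probed for reduced Tau pSer396 via ELISA (colorimetric) or western blot (chemiluminescence), both with one shared pSer396 antibody, EC50 for lowering phosphorylation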
[3] = Homo sapiens; Sp5-Luc reporter, SW480 cells, 36 to 48 hours
[4] = SH-SY5Y cells, overnight (16-18 h), read-out: pSer396 Tau EC50
[5] = Homo sapiens, SW480, read-out: percent inhibition at 10 μM
[6] = SH-SY5Y, read-out: pSer396 Tau EC50 (μM)
[7] = Homo sapiens, SW480; read-out: percent inhibition at 10 μM

| Structure (SMILES) | EC50 [1, 3] | EC50 [2, 4] | inhibition at 10 µM [1, 5] | EC50 [2, 6] | inhibition at 10 µM [1, 7] |
| --- | --- | --- | --- | --- | --- |
| CN1CC2CCC(C1)N2C(=O)Nc1cc2cc(-c3cnn(C)c3)ccc2cn1 [Compound 61, 3-Methyl-N-(6-(1-methyl-1H-pyrazol-4-yl)isoquinolin-3-yl)-3,8-diazabicyclo[3.2.1]octane-8-carboxamide] | > 10 µM |  | 22.4% | > 10 µM |  |
| Cc1nnc(-c2ccc3cnc(NC(=O)N4C5CCC4CN(C)C5)cc3c2)s1 [Compound 108, 3-Methyl-N-(6-(5-methyl-1,3,4-thiadiazol-2-yl)isoquinolin-3-yl)-3,8-diazabicyclo[3.2.1]octane-8-carboxamide] | > 10 µM |  | 19.9% | > 10 µM |  |
| Cc1nnc(-c2ccc3cnc(NC(=O)N4[C@@H]5CC[C@H]4C[C@H](NCCC(F)(F)F)C5)cc3c2)s1 [Compound 153, (1R,5S)-N-(6-(5-Methyl-1,3,4-thiadiazol-2-yl)isoquinolin-3-yl)-3-exo-((3,3,3-trifluoropropyl)amino)-8-azabicyclo[3.2.1]octane-8-carboxamide] | > 10 µM |  | 3.4% | > 10 µM |  |
| Cc1ncc(-c2ccc3cnc(NC(=O)[C@H]4CC[C@H](NCCF)CC4)cc3c2)o1 [Compound 155, trans-4-((2-fluoroethyl)amino)-N-(6-(2-methyloxazol-5-yl)isoquinolin-3-yl) cyclohexane-1-carboxamide] | 2.67 µM | 0.384 µM |  |  |  |
| Cc1nnc(-c2ccc3cnc(NC(=O)N4[C@@H]5CC[C@H]4C[C@@H](NCCC(F)(F)F)C5)cc3c2)s1 [Compound 195, (1R,5S)-cis-N-(6-(5-methyl-1,3,4-thiadiazol-2-yl)isoquinolin-3-yl)-3-((3,3,3-trifluoropropyl)amino)-8-azabicyclo[3.2.1]octane-8-carboxamide] | > 10 µM |  | 13.8% | > 10 µM |  |
| Cc1nnc(-c2cc(F)c3cnc(NC(=O)N(C)C4CCN(C)CC4)cc3c2)s1 [Compound 227, 3-(8-Fluoro-6-(5-methyl-1,3,4-thiadiazol-2-yl)isoquinolin-3-yl)-1-methyl-1-(1-methylpiperidin-4-yl)urea] | 3.65 µM | 4.5 µM |  |  |  |

Now from value to compound, other results behind:

| EC50 [1, 3] | EC50 [2, 4] | Structure (SMILES) | inhibition at 10 µM [1, 5] | EC50 [2, 6] | inhibition at 10 µM [1, 7] |
| --- | --- | --- | --- | --- | --- |
| 0.434 µM | 0.126 µM | Cc1nnc(-c2ccc3cnc(NC(=O)[C@H]4CC[C@H](N(C)C)CC4)cc3c2)s1 [Compound 22, trans-4-(Dimethylamino)-N-(6-(5-methyl-1,3,4-thiadiazol-2-yl)isoquinolin-3-yl)cyclohexane-1-carboxamide] |  |  |  |
| 1.46 µM | 0.058 µM | Cc1cn2c(n1)CN(C(=O)Nc1cc3cc(-c4nnc(C)s4)ccc3cn1)CC2 [Compound 58, 2-Methyl-N-(6-(5-methyl-1,3,4-thiadiazol-2-yl)isoquinolin-3-yl)-5,6-dihydroimidazo[1,2-a]pyrazine-7(8H)-carboxamide] |  |  |  |
| > 10 µM | > 10 µM | C[C@@H]1CN(C(=O)Nc2cc3cc(-c4cnn(C)c4)ccc3cn2)CCN1C [Compound 67, (R)-3,4-Dimethyl-N-(6-(1-methyl-1H-pyrazol-4-yl)isoquinolin-3-yl) piperazine-1-carboxamide] |  |  | 34.3% |
| 3.43 µM | 0.323 µM | COCCN[C@H]1CC[C@H](C(=O)Nc2cc3cc(-c4cnc(C)o4)ccc3cn2)CC1 [Compound 106, trans-4-((2-Methoxyethyl)amino)-N-(6-(2-methyloxazol-5-yl)isoquinolin-3-yl)cyclohexane-1-carboxamide] |  |  |  |
| 3.98 µM |  | COCCN[C@H]1CC[C@H](C(=O)Nc2cc3cc(-c4cnn(C)c4)ccc3cn2)CC1 [Compound 196, trans-4-((2-Methoxyethyl)amino)-N-(6-(1-methyl-1H-pyrazol-4-yl)isoquinolin-3-yl)cyclohexane-1-carboxamide] |  |  |  |
| > 10 µM | 6.4 µM | CN1CCC(N(C)C(=O)Nc2cc3cc(-c4cn(C)nn4)cc(F)c3cn2)CC1 [Compound 228, 3-(8-Fluoro-6-(1-methyl-1H-1,2,3-triazol-4-yl)isoquinolin-3-yl)-1-methyl-1-(1-methylpiperidin-4-yl)urea] |  |  | 46.3% |
| > 10 µM |  | CN1CCC(N(C)C(=O)Nc2cc3cc(-c4cnn(C)c4)cc(F)c3cn2)CC1 [Compound 230, 3-(8-Fluoro-6-(1-methyl-1H-pyrazol-4-yl)isoquinolin-3-yl)-1-methyl-1-(1-methylpiperidin-4-yl)urea] |  |  | 0% |
| 3.89 µM |  | Cc1ncc(-c2ccc3cnc(NC(=O)N(C)C4CCN(C)CC4)cc3c2)o1 [Compound 231, 1-Methyl-3-(6-(2-methyloxazol-5-yl)isoquinolin-3-yl)-1-(1-methylpiperidin-4-yl)urea] |  |  |  |
